The nature of data set [1]: Brain penetration study, multiple oral dose PK in plasma and CSF. It is filed as in vivo, human.
Description: An adaptive dose, double-blind, placebo-controlled study (NCT04249323, EudraCT 2019-004258-27) was conducted in 110 healthy male and female volunteers (18-60 years old; BMI 18-30 kg/m2; weight≤102 kg; “First In Human” (FIH) study).
For data set [2], the target named is T1, GR (Rattus norvegicus, UniProt P06536).
T1 construct: endogenous in cells
T1 sequence (P06536 1-795): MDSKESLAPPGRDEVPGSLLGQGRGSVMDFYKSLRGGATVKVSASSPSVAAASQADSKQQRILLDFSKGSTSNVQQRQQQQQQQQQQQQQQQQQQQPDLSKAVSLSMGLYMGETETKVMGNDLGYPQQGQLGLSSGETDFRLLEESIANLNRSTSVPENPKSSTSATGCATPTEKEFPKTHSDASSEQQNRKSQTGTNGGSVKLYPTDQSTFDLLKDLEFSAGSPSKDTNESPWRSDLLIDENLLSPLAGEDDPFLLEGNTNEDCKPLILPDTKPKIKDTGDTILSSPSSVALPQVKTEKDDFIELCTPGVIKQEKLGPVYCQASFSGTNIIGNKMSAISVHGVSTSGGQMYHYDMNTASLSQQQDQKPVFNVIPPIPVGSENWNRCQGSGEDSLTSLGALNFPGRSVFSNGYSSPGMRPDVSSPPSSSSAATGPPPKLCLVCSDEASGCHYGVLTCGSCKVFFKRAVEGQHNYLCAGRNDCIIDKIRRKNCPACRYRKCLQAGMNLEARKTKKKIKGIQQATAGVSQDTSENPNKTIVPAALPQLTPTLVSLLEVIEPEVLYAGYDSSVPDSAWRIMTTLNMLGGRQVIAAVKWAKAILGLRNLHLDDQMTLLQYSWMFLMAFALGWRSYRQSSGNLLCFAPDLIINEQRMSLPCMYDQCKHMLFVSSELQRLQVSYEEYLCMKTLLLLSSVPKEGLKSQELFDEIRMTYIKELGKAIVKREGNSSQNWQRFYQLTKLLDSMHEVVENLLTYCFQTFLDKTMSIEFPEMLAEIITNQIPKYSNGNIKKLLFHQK
Nature of the data set: Inhibition of dexamethasone effect on TAT activity, rat hepatoma cell line. The class given is cell-based. To be noted: read-out: Kc, inhibition of dexamethasone effects on TAT activity.

Data set [3] deals with T2, mineralocorticoid receptor (MR) (Homo sapiens, UniProt P08235).
T2 sequence (P08235 1-984): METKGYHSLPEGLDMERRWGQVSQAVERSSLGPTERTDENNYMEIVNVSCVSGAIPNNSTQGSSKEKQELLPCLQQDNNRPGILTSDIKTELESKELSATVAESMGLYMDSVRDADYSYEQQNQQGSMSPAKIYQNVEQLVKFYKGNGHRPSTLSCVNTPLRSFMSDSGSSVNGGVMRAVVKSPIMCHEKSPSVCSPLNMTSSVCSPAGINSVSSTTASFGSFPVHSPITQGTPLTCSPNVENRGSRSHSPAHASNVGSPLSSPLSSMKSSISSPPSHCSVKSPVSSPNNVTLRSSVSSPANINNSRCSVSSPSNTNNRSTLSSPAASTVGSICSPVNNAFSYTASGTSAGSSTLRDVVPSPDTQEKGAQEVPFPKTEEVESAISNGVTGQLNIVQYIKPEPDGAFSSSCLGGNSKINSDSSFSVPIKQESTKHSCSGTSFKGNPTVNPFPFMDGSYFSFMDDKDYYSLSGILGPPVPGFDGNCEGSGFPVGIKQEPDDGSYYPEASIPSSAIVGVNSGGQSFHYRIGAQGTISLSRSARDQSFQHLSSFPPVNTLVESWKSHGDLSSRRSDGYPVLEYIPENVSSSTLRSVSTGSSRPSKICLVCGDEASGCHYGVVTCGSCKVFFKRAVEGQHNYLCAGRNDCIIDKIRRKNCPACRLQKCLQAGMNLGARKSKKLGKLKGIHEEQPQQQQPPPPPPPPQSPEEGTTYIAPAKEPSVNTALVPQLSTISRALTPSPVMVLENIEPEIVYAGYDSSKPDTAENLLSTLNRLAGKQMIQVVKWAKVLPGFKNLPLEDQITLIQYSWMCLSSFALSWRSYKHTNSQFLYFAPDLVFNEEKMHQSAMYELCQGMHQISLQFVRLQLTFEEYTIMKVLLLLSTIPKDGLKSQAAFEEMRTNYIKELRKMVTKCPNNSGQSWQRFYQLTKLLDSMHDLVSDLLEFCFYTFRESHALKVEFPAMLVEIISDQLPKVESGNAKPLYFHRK
Description: MR reporter gene assay. The class given is cell-based. For orientation: A reporter such as luciferase makes a cellular process visible.

The next data set has as its system estrogen receptor. Description: Estrogen receptor binding. To be noted: 10 μM. The method, then: Dazucorilant is selective for GR over other nuclear hormone receptors, and a range of other receptors, enzymes, and ion channels. For example, dazucorilant has high selectivity for GR relative to the progesterone receptor (PR), androgen receptor, and estrogen receptor, showing no significant binding to these receptors at a concentration of 10 μM (0%, 1.5% and […], respectively).

For data set [4], the target named is T3, GR (Homo sapiens, UniProt P04150).
T3 sequence (P04150 1-777): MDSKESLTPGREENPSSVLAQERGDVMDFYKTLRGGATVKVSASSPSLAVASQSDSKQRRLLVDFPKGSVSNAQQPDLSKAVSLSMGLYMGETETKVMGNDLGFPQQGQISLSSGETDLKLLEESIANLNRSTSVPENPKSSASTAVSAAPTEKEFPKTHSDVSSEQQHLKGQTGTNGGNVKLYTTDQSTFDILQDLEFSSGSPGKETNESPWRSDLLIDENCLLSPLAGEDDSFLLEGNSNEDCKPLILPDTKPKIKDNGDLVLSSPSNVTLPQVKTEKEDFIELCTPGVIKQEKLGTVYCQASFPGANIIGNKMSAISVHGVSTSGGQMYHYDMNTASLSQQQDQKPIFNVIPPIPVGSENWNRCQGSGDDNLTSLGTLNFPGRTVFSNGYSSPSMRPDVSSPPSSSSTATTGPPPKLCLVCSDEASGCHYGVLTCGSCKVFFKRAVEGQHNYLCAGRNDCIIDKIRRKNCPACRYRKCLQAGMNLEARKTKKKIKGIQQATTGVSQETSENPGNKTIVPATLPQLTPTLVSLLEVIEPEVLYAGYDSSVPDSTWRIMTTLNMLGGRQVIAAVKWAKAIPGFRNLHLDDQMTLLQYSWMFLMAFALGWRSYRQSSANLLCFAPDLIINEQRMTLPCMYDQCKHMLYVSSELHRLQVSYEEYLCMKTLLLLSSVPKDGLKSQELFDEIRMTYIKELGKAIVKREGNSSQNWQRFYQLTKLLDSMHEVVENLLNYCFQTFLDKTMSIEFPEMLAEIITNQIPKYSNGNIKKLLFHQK
Description: Inhibition of dexamethasone effect on TAT activity, human liver carcinoma cell line. It is filed as cell-based. Set-up: endogenous in cells; host or cells: human liver carcinoma cell line (probably HepG2, inferred). To be noted: read-out: Ki, inhibition of dexamethasone effects on TAT activity.
Description: The term “glucocorticoid receptor modulator” (GRM) refers to any compound which modulates glucocorticoid binding to GR, or which modulates any biological response associated with the binding of GR to an agonist. For example, a GRM that acts as an agonist, such as dexamethasone, increases the activity of tyrosine aminotransferase (TAT) in HepG2 cells (a human liver hepatocellular carcinoma cell line; ECACC, UK). A GRM that acts as an antagonist, such as mifepristone, decreases the activity of tyrosine aminotransferase (TAT) in HepG2 cells.

“Also recorded” adds a separate entry of the source. Where only a bound is given, the exact number is not on record here.

In the case of `O=C(c1ccccn1)[C@]12Cc3cnn(-c4ccc(F)cc4)c3C=C1CCN(S(=O)(=O)c1ccc(C(F)(F)F)cc1)C2` [dazucorilant, (R)-(1-(4-fluorophenyl)-6-((4-(trifluoromethyl)phenyl)sulfonyl)-4,4a, 5,6,7,8-hexahydro-1-H-pyrazolo[3,4-g]isoquinolin-4a-yl) (pyridin-2-yl)methanone], in data set [1] (300 mg relative to 150 mg, daily for 14 days), the “dose proportionality of exposures” value was “greater than dose-proportional increase in dazucorilant exposures”. Also, in data set [1] (1 week of QD dosing, 150 mg and 300 mg, fed), the “detection in the CSF” value is “detectable in the CSF in all study participants”. Moreover, the “time to steady state of exposure” value in data set [1] (QD dosing) is recorded as at most 1 week. The “distribution to the cerebrospinal fluid (CSF)” value in data set [1] (oral administration, healthy volunteers) is “distribution of dazucorilant is observed in the cerebrospinal fluid; also recorded: distribution to the CSF was observed”. Besides, the “steady state exposures (Cmax, AUC0-24), 300 vs. 150 mg” value in data set [1] (steady state, QD dosing) is reported as “approximately 4 fold”. Moreover, the results for the Ki at GR [2] and on GR [4] were 4.2 nM and 14 nM, respectively. The inhibition (in general, the relative decrease from the control value, in per cent) at 5 µM in data set [3] is 23%. For the same molecule, the “binding to estrogen receptor” value in the data set on estrogen receptor was 37.5%.
